According to publication PMC2855616 (ACS Chemical Biology, 2010):

System: hexokinase from Saccharomyces cerevisiae
Experiment: initial rates of ADP generation monitored with 5-ATR-ParM biosensor
Assay type: biochemical
Details: read-out: KM^glucose; 1 mM ATP, 50 mM Tris-HCl pH 7.5, 25 mM KCl, 10 mM MgCl2, 20 °C

For `OC[C@H]1OC(O)[C@H](O)[C@@H](O)[C@@H]1O` (stereo partly drawn) [D-glucose], the Km was 180 ± 9 µM.
